Tests used:
cotton = assay: Test C postemergence cotton; type: in vivo, Gossypium hirsutum; settings: 0 to 100 scale, 0 no effect, 100 complete control
Method: (§1) Compounds evaluated in this test were formulated in a non-phytotoxic solvent mixture which included a surfactant and applied to plants that were grown for various periods of time before treatment (postemergence application). A mixture of sandy loam soil and greenhouse potting mix in a 60:40 ratio was used for the postemergence test.
(§2) Plantings of these crops and weed species were adjusted to produce plants of appropriate size for the postemergence test. All plant species were grown using normal greenhouse practices. Crop and weed species include arrowleaf sida (Sida rhombifolia), barnyardgrass (Echinochloa crus-galli), cocklebur (Xanthium strumarium), common ragweed (Ambrosia elatior), corn (Zea mays), cotton (Gossypium hirsutum), eastern black nightshade (Solanum ptycanthum), fall panicum (Panicum dichotomiflorum), field bindweed (Convolvulus arvensis), giant foxtail (Setaria faberii), hairy beggarticks (Bidens pilosa), ivyleaf morningglory (Ipomoea hederacea), johnsongrass (Sorghum halepense), ladysthumb smartweed (Polygonum persicaria), lambsquarters (Chenopodium album), large crabgrass (Digitaria sanguinalis), purple nutsedge (Cyperus rotundus), redroot pigweed (Amaranthus retroflexus), soybean (Glycine max), surinam grass (Brachiaria decumbens), velvetleaf (Abutilon theophrasti) and wild poinsettia (Euphorbia heterophylla).
(§3) Treated plants and untreated controls were maintained in a greenhouse for approximately 14, to 21 days, after which all treated plants were compared to untreated controls and visually evaluated. Plant response ratings, summarized in Table C, were based upon a 0 to 100 scale where 0 was no effect and 100 was complete control. A dash response (−) means no test result.

winter barley = assay: Test E winter barley; type: in vivo, Hordeum vulgare; settings: Postemergence
Method: (§4) Compounds evaluated in this test were formulated in a non-phytotoxic solvent mixture which included a surfactant and applied to plants that were in the 1- to 4-leaf stage (postemergence application). A mixture of sandy loam soil and greenhouse potting mix in a 60:40 ratio was used for the postemergence test.
(§5) Plantings of these crops and weed species were adjusted to produce plants of appropriate size for the postemergence test. All plant species were grown using normal greenhouse practices. Crop and weed species include annual bluegrass (Poa annua), blackgrass (Alopecurus myosuroides), black nightshade (Solanum nigra), chickweed (Stellaria media), common poppy (Papaver rhoeas), deadnettle (Lamium amplexicaule), downy brome (Bromus tectorum), field violet (Viola arvensis), galium (Galium aparine), green foxtail (Setaria viridis), Italian ryegrass (Lolium multiflorum), jointed goatgrass (Aegilops cylindrica), kochia (Kochia scoparia), lambsquarters (Chenopodium album), littleseed canarygrass (Phalaris minor), rape (Brassica napus), redroot pigweed (Amaranthus retroflexus), Russian thistle (Salsola kali), scentless chamomile (Matricaria inodora), spring barley (Hordeum vulgare), sugar beet (Beta vulgaris), sunflower (Helianthus annuus), ivyleaf speedwell (Veronica hederaefolia), spring wheat (Triticum aestivum), winter wheat (Triticum aestivum), wild buckwheat (Polygonum convolvulus), wild mustard (Sinapis arvensis), wild oat (Avena fatua), windgrass (Apera spica-venti) and winter barley (Hordeum vulgare).
(§6) Treated plants and untreated controls were maintained in a greenhouse for approximately 21 to 28 days, after which all treated plants were compared to untreated controls and visually evaluated. […] A dash response (-) means no test result.

spring wheat = assay: Test E spring wheat; type: in vivo, Triticum aestivum; settings: Preemergence
soybean = assay: Test C postemergence soybean; type: in vivo, Glycine max; settings: 0 to 100 scale, 0 no effect, 100 complete control
Summary of the method: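 Activity is expressed as percent-style visual control, 0 (no effect) to 100 (complete control), assessed approximately 14 to 21 days after application, relative to untreated plants. Application was postemergence, using a non-phytotoxic solvent formulation with surfactant.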

annual bluegrass = assay: Test E annual bluegrass; type: in vivo, Poa annua; settings: Postemergence
Method: as §4, §5, §6

wild buckwheat = assay: Test E wild buckwheat; type: in vivo, Polygonum convolvulus; settings: Postemergence
Method: as §4, §5, §6

lambsquarters [1] = assay: Test C postemergence lambsquarters; type: in vivo, Chenopodium album; settings: 0 to 100 scale, 0 no effect, 100 complete control
Method: as §1, §2, §3

lambsquarters [2] = assay: Test E lambsquarters; type: in vivo, Chenopodium album; settings: Preemergence
jointed goatgrass = assay: Test E jointed goatgrass; type: in vivo, Aegilops cylindrica; settings: Postemergence
Summary of the method: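 Visual evaluation versus untreated controls after about 21 to 28 days in the greenhouse. Compound was in a surfactant-containing non-phytotoxic solvent; postemergence plants were treated at the 1- to 4-leaf stage, grown in a 60:40 sandy loam and potting mix blend.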

Green foxtail = assay: Test D green foxtail; type: in vivo
Source text: Seeds, tubers, or plant parts of Alexandergrass (Brachiaria plantaginea), bermuda-grass (Cynodon dactylon), common pursiane (Portulaca oleracea), common ragweed (Ambrosia elatior), common groundsel (Senecio vulgaris), dallisgrass (Paspalum dilatatum), goosegrass (Eleusine indica), guineagrass (Panicum maximum), itchgrass (Rottboellia exaltata), Johnson grass (Sorghum halepense), large crabgrass (Digitaria sanguinalis), pitted morningglory (Ipomoea lacunosa), purple nutsedge (Cyperus rotundus), sandbur (Cenchrus echinatus), sourgrass (Trichachne insularis), Spanishneedles (Bidens bipinnata), surinam grass (Brachiaria decumbens) and tall mallow (Malva sylvestris) were planted into greenhouse pots of flats containing greenhouse planting medium. Plant species were grown in separate pots or individual compartments. Preemergence applications were made within one day of planting the seed or plant part.
Test chemicals were formulated in a non-phytotoxic solvent mixture which included a surfactant and applied preemergence to the surface of the pot containing seeds in a sandy loam soil. Untreated control pots and treated pots were placed in the greenhouse for growth and visually evaluated for injury 14 to 21 days after herbicide application. Plant response ratings, summarized in Table C, are based on a 0 to 100 scale where 0 is no injury and 100 is complete control. A dash (−) response means no test result.

redroot pigweed = assay: Test E redroot pigweed; type: in vivo, Amaranthus retroflexus; settings: Postemergence
Method: as §4, §5, §6

[3] = Rate 250 g/ha, 0 to 100 scale (0 no effect, 100 complete control)
[4] = Rate 62 g/ha, 0 to 100 scale, 0 no effect, 100 complete control
[5] = Rate 125 g/ha, 0 to 100 scale (0 no effect, 100 complete control)
[6] = Rate 64 g/ha, Preemergence; 0 to 100 scale, 0 no injury, 100 complete control
[7] = Rate 125 g/ha, Preemergence; 0 to 100 scale, 0 no injury, 100 complete control
[8] = Rate 500 g/ha, 0 to 100 scale, 0 no effect, 100 complete control
[9] = Rate 500 g/ha, 0 to 100 scale where 0 is no effect and 100 is complete control

CCn1c(=O)on(C(=O)N(c2ccc(F)cc2)C(C)C)c1=O [Compound 107]
80: Plant response rating Cotton (cotton; Rate 560 g/ha)
20: Plant response rating, Annual bluegras (annual bluegrass; Rate 62 g/ha, 0 to 100 scale) | Plant response rating, Redroot pigweed (redroot pigweed; Rate 62 g/ha, 0 to 100 scale) | Plant response rating, Redroot pigweed (redroot pigweed; [3])
0: Plant response rating, Wild buckwheat (wild buckwheat; Rate 62 g/ha, 0 to 100 scale) | Plant response rating, Wild buckwheat (wild buckwheat; Rate 125 g/ha, 0 to 100 scale) | Plant response rating, Lambsquarters (lambsquarters [1]; Rate 140 g/ha) | Plant response rating, Lambsquarters (lambsquarters [1]; Rate 280 g/ha) | Plant response rating, Jointed goatgra (jointed goatgrass; Rate 62 g/ha, 0 to 100 scale)
85: Plant response rating, Spring Wheat (spring wheat; Rate 250 g/ha, 0 to 100 scale) | Plant response rating, Soybean (soybean; Rate 560 g/ha) | Plant response rating, Soybean (soybean; Rate 1120 g/ha)
45: Plant response rating Cotton (cotton; Rate 140 g/ha) | Plant response rating, Soybean (soybean; Rate 140 g/ha)
100: Plant response rating, Lambsquarters (lambsquarters [2]; [4]) | Plant response rating, Lambsquarters (lambsquarters [2]; [5]) | Plant response rating, Lambsquarters (lambsquarters [2]; Rate 250 g/ha, 0 to 100 scale) | Plant response rating, Green foxtail (Green foxtail; Preemergence; Rate 16 g/ha; 0 to 100 scale, 0 no injury, 100 complete control) | Plant response rating, Green foxtail (Green foxtail; Preemergence; Rate 32 g/ha; 0 to 100 scale, 0 no injury, 100 complete control) | Plant response rating, Green foxtail (Green foxtail; Rate 16 g/ha; Preemergence; 0 to 100 scale, 0 no injury, 100 complete control) | Plant response rating, Green foxtail (Green foxtail; Rate 32 g/ha; Preemergence; 0 to 100 scale, 0 no injury, 100 complete control) | Green foxtail plant response rating (Green foxtail; [6]) | Plant response rating, Green foxtail (Green foxtail; [6]) | Green foxtail plant response rating (Green foxtail; [7]) | Plant response rating, Green foxtail (Green foxtail; [7]) | Plant response rating, Green foxtail (Green foxtail; Rate 250 g/ha; Preemergence; 0 to 100 scale) | Plant response rating, Green foxtail (Green foxtail; Rate 500 g/ha, Preemergence; 0 to 100 scale)
60: Plant response rating Cotton (cotton; Rate 280 g/ha) | Plant response rating, Spring Wheat (spring wheat; [4])
70: Plant response rating, Soybean (soybean; Rate 280 g/ha)
5: Plant response rating, Barley (winter) (winter barley; Rate 62 g/ha, 0 to 100 scale) | Plant response rating, Barley (winter) (winter barley; Rate 125 g/ha, 0 to 100 scale) | Plant response rating, Annual bluegras (annual bluegrass; Rate 125 g/ha, 0 to 100 scale)
10: Plant response rating, Barley (winter) (winter barley; [3]) | Plant response rating, Wild buckwheat (wild buckwheat; [3]) | Plant response rating, Jointed goatgra (jointed goatgrass; Rate 125 g/ha, 0 to 100 scale) | Plant response rating, Jointed goatgra (jointed goatgrass; [3]) | Plant response rating, Redroot pigweed (redroot pigweed; Rate 125 g/ha, 0 to 100 scale)
75: Plant response rating, Spring Wheat (spring wheat; [5])
50: Plant response rating, Annual bluegras (annual bluegrass; [3])
40: Plant response rating, Lambsquarters (lambsquarters [1]; Rate 560 g/ha) | Plant response rating, Lambsquarters (lambsquarters [1]; Rate 1120 g/ha)
90: Plant response rating Cotton (cotton; Rate 1120 g/ha)

CCn1c(=O)on(C(=O)N(c2ccc(F)cc2F)C(C)C)c1=O [Compound 116]
0: Plant response rating, Barley (winter) (winter barley; Rate 62 g/ha, 0 to 100 scale) | Plant response rating, Wild buckwheat (wild buckwheat; Rate 62 g/ha, 0 to 100 scale) | Plant response rating, Wild buckwheat (wild buckwheat; Rate 125 g/ha, 0 to 100 scale) | Plant response rating, Wild buckwheat (wild buckwheat; [3]) | Plant response rating, Wild buckwheat (wild buckwheat; [8]) | Plant response rating, Lambsquarters (lambsquarters [1]; Rate 140 g/ha) | Plant response rating, Lambsquarters (lambsquarters [1]; Rate 560 g/ha) | Plant response rating, Lambsquarters (lambsquarters [1]; Rate 1120 g/ha) | Plant response rating, Redroot pigweed (redroot pigweed; Rate 62 g/ha, 0 to 100 scale) | Plant response rating, Redroot pigweed (redroot pigweed; Rate 125 g/ha, 0 to 100 scale) | Plant response rating, Redroot pigweed (redroot pigweed; [3]) | Plant response rating, Redroot pigweed (redroot pigweed; [8])
75: Plant response rating, Annual bluegras (annual bluegrass; [8])
30: Plant response rating, Soybean (soybean; Rate 560 g/ha) | Plant response rating, Jointed goatgra (jointed goatgrass; Rate 62 g/ha, 0 to 100 scale)
70: Plant response rating, Annual bluegras (annual bluegrass; [3])
20: Plant response rating, Jointed goatgra (jointed goatgrass; Rate 125 g/ha, 0 to 100 scale)
10: Plant response rating Cotton (cotton; Rate 140 g/ha) | Plant response rating, Barley (winter) (winter barley; Rate 125 g/ha, 0 to 100 scale) | Plant response rating, Barley (winter) (winter barley; [3]) | Plant response rating, Barley (winter) (winter barley; [8]) | Plant response rating, Soybean (soybean; Rate 140 g/ha) | Plant response rating, Soybean (soybean; Rate 280 g/ha)
50: Plant response rating Cotton (cotton; Rate 280 g/ha) | Plant response rating Cotton (cotton; Rate 560 g/ha) | Plant response rating, Annual bluegras (annual bluegrass; Rate 125 g/ha, 0 to 100 scale) | Plant response rating, Jointed goatgra (jointed goatgrass; [8])
100: Plant response rating, Spring Wheat (spring wheat; [9]) | Plant response rating, Annual bluegras (annual bluegrass; Rate 62 g/ha, 0 to 100 scale) | Plant response rating, Lambsquarters (lambsquarters [2]; [5]) | Plant response rating, Lambsquarters (lambsquarters [2]; Rate 250 g/ha, 0 to 100 scale) | Plant response rating, Lambsquarters (lambsquarters [2]; [9])
80: Plant response rating, Spring Wheat (spring wheat; Rate 250 g/ha, 0 to 100 scale)
40: Plant response rating, Soybean (soybean; Rate 1120 g/ha) | Plant response rating, Jointed goatgra (jointed goatgrass; [3])
15: Plant response rating, Spring Wheat (spring wheat; [5])

C=C(C)Cn1c(=O)on(C(=O)N(c2ccc(F)cc2)C(C)C)c1=O [Compound 139]
98: Green foxtail plant response rating (Green foxtail; [6]) | Plant response rating, Green foxtail (Green foxtail; [6])

From patent US6737383B1, “Herbicidal oxadiazolidines” (priority 1999, dated 2004)
